Columns and labels:
[1] = tested on: 5αR; conditions: cited from earlier work
[2] = tested on: castrated BPH model mice; experiment: Castrated benign prostatic hyperplasia (BPH) mouse model; type: in vivo; conditions: for testosterone-induced increase in seminal gland weight / testosterone-induced increase in ventral prostate size, length and width: 0.08% Fin, 1% TBE or 2% EA in drinking water, testosterone i.p. daily
[3] = molecular target: T1, 5α-reductase (5αR) (Rattus norvegicus, UniProt P24008); experiment: 5αR activity assay (S9 rat liver homogenate, residual testosterone by HPLC); type: biochemical; conditions: cell-free system
T1 sequence (P24008 1-259): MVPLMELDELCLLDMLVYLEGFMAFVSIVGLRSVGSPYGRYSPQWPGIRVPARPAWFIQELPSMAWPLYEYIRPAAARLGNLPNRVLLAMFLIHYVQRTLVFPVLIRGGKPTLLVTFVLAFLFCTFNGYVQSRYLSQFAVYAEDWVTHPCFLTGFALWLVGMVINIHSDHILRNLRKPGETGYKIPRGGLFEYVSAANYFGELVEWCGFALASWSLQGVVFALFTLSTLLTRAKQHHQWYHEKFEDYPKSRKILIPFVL

[4] = qPCR, prostate and seminal glands

Compound | inhibition of 5αR [1] | testosterone-induced increase in seminal gland weight [2] | testosterone-induced increase in ventral prostate size, length and width [2] | also measured
O=C(O[C@@H]1O[C@@H]2COC(=O)c3cc(O)c(O)c(O)c3-c3c(cc(O)c(O)c3O)C(=O)O[C@H]2[C@H](OC(=O)c2cc(O)c(O)c(O)c2)[C@H]1OC(=O)c1cc(O)c(O)c(O)c1)c1cc(O)c(O)c(O)c1 [eugeniin] | inhibit 5αR |  |  | 
1,2,3,6- or 1,2,4,6-tetra-O-galloyl-D-glucose [TGG] | inhibit 5αR |  |  | 
CC(C)(C)NC(=O)[C@H]1CC[C@H]2[C@@H]3CC[C@H]4NC(=O)C=C[C@]4(C)[C@H]3CC[C@]12C [Fin, finasteride] |  | tended to inhibit | tended to inhibit | canalization and lumen formation in prostate gland ([2]; Masson's trichrome histology, 0.08% Fin or 1% TBE): suppressed; prostate basal cell proliferation, BrdU+ cells ([2]; immunohistochemistry, 0.08% Fin or 1% TBE): inhibited cell proliferation; PSA (Klkb1) expression [2, 4]: suppressed; TMPRSS2 expression [2, 4]: suppressed
O=C(O)c1cc(O)c(O)c(O)c1 [GA, gallic acid] |  |  |  | 5αR inhibitory effects [1]: does not exert 5αR inhibitory effects
O=c1oc2c(O)c(O)cc3c(=O)oc4c(O)c(O)cc1c4c23 [EA, ellagic acid] |  | negligible effects | negligible effects | inhibition of 5αR activity [3]: weakly inhibited
